A word on the MIC: it is the least concentration at which growth counts as inhibited. A lower MIC goes with greater potency. What is called CC50 is the concentration giving 50% cytotoxicity.

Values after ≈ are worked out from the molar mass of the structure shown. Where two headings read alike, the source gives them in different places. Residues, ends and D or L forms follow the SMILES beside them.

In series [1] the test system is Pseudomonas aeruginosa ATCC 19660 induced keratitis. The series is described as follows: Clinical grading of Pseudomonas keratitis in mice. The class given is in vivo, C57BL/6 mice. Conditions: scale 0-4. As for the experimental part: C57BL/6 mice were infected in one eye with P. aeruginosa ATCC 19660 and treated with 40 μM Esc-1a(1-21)NH2 or vehicle control (PBS). In some animals (Pre-trt group) treatment with Esc-1a(1-21)NH2 was initiated 24 hrs prior to infection. […] There was no significant difference between the Esc-1a(1-21)NH2 pretreatment group and when treatment was begun after infection.
To determine a clinical score, neutrophil infiltration by myeloperoxidase assay (MPO assay) and viable bacterial cell counts in infected and control corneas of C57BL/6 mice with Pseudomonas aeruginosa ATCC 19660 keratitis following pre-treatment and post-infection treatment with Esc-1a(1-21)NH2 up to 5 days post-infection (PI) the following experiment was performed. In these experiments pre-treatment refers to a group of animals where treatment was initiated 24 hrs before infection then continued after infection.
Images of the uninfected control and infected eye were taken on days 1, 3 and 5 PI using a camera equipped slit lamp biomicroscope. Clinical grading of infection on days 1, 3 and 5 PI was by visualizing through a slit lamp and using an established grading scale (Table 2). A myeloperoxidase assay was used to quantitate the polymorphonuclear cell numbers in the infected and control corneas (data presented in FIG. 6). Viable counts for bacteria were recovered from corneas at day 1, 3 and 5 PI (FIG. 7).
1. IP injections of ketamine and xylazine mixture were given (final dose 100 and 10 mg/kg respectively) to anesthetize the mice.
2. Pre-treatment group-5 μl of peptide (40 μM) was instilled topically onto intact corneas—3 times in 24 h.
3. Day 0—Day of infection: • a. 3×1 mm parallel scratches were made at the center of the right cornea of the mice using a 271/2 gauge needle and 5 μl of P. aeruginosa ATCC19660 bacterial solution (1×10^6 CFU) was pipetted on the wounded cornea. • b. Topically pipetted 5 μl of 40 μM Esc-1a(1-21)NH2 or vehicle (PBS) on the cornea 2-times on Day 0 starting 5 hours after bacterial infection.
4. Day 1 post-infection: • a. Captured images and graded the infection using a slit lamp biomicroscope. • b. Harvested corneas from 2 mice per group, pooled the corneas and processed them to perform the MPO assay. • c. Instilled peptide or vehicle three times/24 hrs (6.30 am, 1.30 pm, 8.30 pm).
5. Repeated the peptide or vehicle treatment 3 times a day for the next 4 days.
6. In addition, captured images, graded the infection and repeated the MPO assay on Day 3 and 5 post-infection.
The mean clinical scores for the Esc-1a(1-21)NH2 treated and PBS vehicle control group at day 1, 3 and 5 PI obtained from 4 separate experiments where the size of inoculum was 1*10^6 CFU/5 μl were plotted (FIG. 5).

Series [2] has as its system Pseudomonas aeruginosa. As for the experimental part: To determine the minimum inhibitory concentration (MIC) of Esc-1a(1-21)NH2 that causes total inhibition of microbial growth against Pseudomonas aeruginosa and Staphylococcal strains, the following experiment (using P. aeruginosa ATCC 19660 as an example) was performed. MIC was determined using the 96 well micro-plate dilution assay. The test was performed in triplicate wells and Esc-1a(1-21)NH2 was serially diluted to give concentrations of 0.125 μM to 64 μM.
Day 1: Picked a colony from a P. aeruginosa ATCC19660 streak plate, inoculated in to nutrient broth and incubated overnight at 37° C. with shaking (250 rpm) Day 2 Steps: Removed 100 μl of the bacterial suspension and inoculated into 50 ml of fresh broth. Incubated for 2.5 hours with vigorous shaking (250 rpm) at 37° C. to achieve mid-log phase growth. Centrifuged the 50 ml culture at 3100 g for 10 minutes; discarded supernatant and resuspended pellet in 2 ml Muller-Hinton broth (MHB). Adjusted the optical density (OD) of the bacterial culture to 0.2 at 620 nm (corresponds to ˜10^7 CFU/ml) and diluted to 2×10^6 CFU/ml using MHB media. Thawed an aliquot of the peptide on ice. Pipetted 90 μl of MHB into wells A1, B1 and C1 and 50 μl of MHB media into A2-C2 through A12-C12. Added 10 μl of Esc-1a(1-21)NH2 into wells A1, B1 and C1 and performed serial twofold dilutions of peptide in a volume of 50 μl from column 1 to column 10 (i.e. transferred 50 μl from A1, B1 and C1 to A2, B2 and C2 and so on till A10-C10). […] Pipetted 50 μl of the diluted P. aeruginosa ATCC 19660 in to each well using a multichannel pipette (final concentration was 1×10^5 bacteria in 100 μl volume). Wrapped the plate using parafilm to prevent evaporation and incubated in a shaker incubator (150 rpm) at 37° C. for 18-24 h.
Day 3 Steps: Read the plate using the spectrophotometer at 590 nm after examining the plates visually for turbidity. Generated spot plates to check for bacterial growth by plating out the contents of the first 3 wells showing no visible growth of bacteria onto MHA plates. Plated dilutions in duplicate and incubated the plates at 37° C. for 18 hr.
Day 4: Counted the number of colonies on the agar plates and plotted the data.

A short description of series [3]: MTT viability assay, A549 cells. Conditions: human. As for the experimental part: Cell viability is expressed as percentage with respect to the control (cells not treated with the peptides). Data points represent the mean of triplicate samples ±SEM. […] The levels of statistical significance between the two peptides are indicated as follows: **p<0.01, ***p<0.001.
Cells were plated in wells of a microtiter plate, at 4×10^4 cells/well in DMEM supplemented with 2 mM glutamine and 2% FBS (for A549 cells) or DMEM containing 2 mM glutamine, non-essential amino acids (NEAA), sodium pyruvate and 2% FBS (for Raw 264.7 macrophages). After overnight incubation at 37° C. in a 5% CO2 atmosphere, the medium was replaced with 100 μl fresh serum-free medium supplemented with the peptides at different concentrations. After 24 h of peptide treatment, cell viability was determined by a MTT assay.

As for `CC[C@H](C)[C@H](NC(=O)CN)C(=O)N[C@@H](Cc1ccccc1)C(=O)N[C@@H](CO)C(=O)N[C@@H](CCCCN)C(=O)N[C@@H](CC(C)C)C(=O)N[C@@H](C)C(=O)NCC(=O)N[C@@H](CCCCN)C(=O)N[C@@H](CCCCN)C(=O)N[C@H](C(=O)N[C@@H](CCCCN)C(=O)N[C@@H](CC(N)=O)C(=O)N[C@@H](CC(C)C)C(=O)N[C@@H](CC(C)C)C(=O)N[C@H](C(=O)N[C@@H](CO)C(=O)NCC(=O)N[C@@H](CC(C)C)C(=O)N[C@@H](CCCCN)C(=O)NCC(N)=O)[C@@H](C)CC)[C@@H](C)CC` [Esc-1a(1-21)NH2] (H-GIFSKLAGKKIKNLLISGLKG-NH2; N-terminus assumed), the mean clinical score turned out to be 1.37±0.07 in series [1] (pre-treated (40 μM topical from 24 h before infection), day 1 PI); 2.29±0.17 in series [1] (pre-treated, day 3 PI); 2.86±0.20 in series [1] (pre-treated, day 5 PI); 1.38±0.22 in series [1] (treated after infection (40 μM topical), day 1 PI); 2.36±0.24 in series [1] (treated after infection, day 3 PI); 2.89±0.26 in series [1] (treated after infection, day 5 PI). In series [2] (P. aeruginosa clinical isolates), this molecule showed an MIC values range of 2 to 8 µM. For the same molecule, the MIC in series [2] (Pseudomonas aeruginosa 1 Rm, clinical ocular isolate) came to 4 µM (≈ 8.74 µg/mL); in series [2] (Pseudomonas aeruginosa ATCC 19660, reference strain), 16 µM (≈ 35 µg/mL); in series [2] (Pseudomonas aeruginosa R1, clinical ocular isolate), 2 µM (≈ 4.37 µg/mL); in series [2] (Pseudomonas aeruginosa n. 2 ME, clinical ocular isolate) it was 8 µM (≈ 17.5 µg/mL); in series [2] (Pseudomonas aeruginosa n. 3, clinical ocular isolate), 8 µM (≈ 17.5 µg/mL). For the same molecule, in series [3], the half-maximal cytotoxic concentration (CC50) at 24 h turned out to be 150 µM.

(Values after US11110195B2, “Esculentin 1a derivatives and uses thereof” (University of Houston System, priority 2013, dated 2021).)
